Test results taken from publication PMC11224111, “Optimizing the pharmacokinetics of an ^211At-labeled RGD peptide with an albumin-binding moiety via the administration of an albumin-binding inhibitor” (European Journal of Nuclear Medicine and Molecular Imaging, 2024).

Test system: U-87 MG tumor-bearing mice
Assay: Biodistribution in U-87 MG tumor-bearing mice with IPBA
Type: in vivo
Conditions: IPBA 10 eq at 1 h postinjection
Protocol: To prepare tumor-bearing mice, 5 × 10^6 of U-87 MG cells were subcutaneously inoculated into the right shoulder of 4-week-old female BALB/c nude mice (13–15 g, Japan SLC, Inc.) as previously reported. At approximately 10-day postinoculation of U-87 MG cells, they were used for each experiment after tumor size reached 0.3–0.5 cm^3.
At 1-h postinjection of [^211At]1 (37 kBq) and [^125I]2 (37 kBq), IPBA (1.9 mg, 6.1 µmol) was administered at 10 molar equivalent of blood albumin. Mice were sacrificed at 65-, 70-min, 2-, 4-, 12-, and 24-h postinjection of [^211At]1 and [^125I]2. Tissues of interest were removed and weighed, and radioactivity counts of ^125I and ^211At were determined with an auto well gamma counter (ARC-7010; Hitachi Medical, Ltd., Tokyo, Japan) and corrected for background radiation. To determine the radioactivity excreted from the body for 24 h, mice were housed in metabolic cages (Metabolica, Sugiyama-Gen Co., Ltd., Tokyo, Japan).

Radioactivity, Bone (65 min after administration): 4.94 (1.52) % injected activity per gram
Radioactivity, Brain (65 min after administration): 0.31 (0.02) % injected activity per gram
Radioactivity, Heart (65 min after administration): 4.77 (0.10) % injected activity per gram
Radioactivity, L. intestine (65 min after administration): 3.10 (0.11) % injected activity per gram
Radioactivity, Muscle (65 min after administration): 2.62 (0.24) % injected activity per gram
Radioactivity, Neck (65 min after administration): 0.05 (0.01)^ * % injected activity
Radioactivity, Pancreas (65 min after administration): 2.66 (0.10) % injected activity per gram
Radioactivity, Spleen (65 min after administration): 3.95 (0.26) % injected activity per gram
Radioactivity, Stomach (65 min after administration): 1.33 (0.31) % injected activity
Radioactivity, Bone (70 min after administration): 2.30 (0.36) % injected activity per gram
Radioactivity, Brain (70 min after administration): 0.24 (0.04) % injected activity per gram
Radioactivity, L. intestine (70 min after administration): 2.29 (0.24) % injected activity per gram
Radioactivity, Muscle (70 min after administration): 1.53 (0.18) % injected activity per gram
Radioactivity, Neck (70 min after administration): 0.06 (0.01) % injected activity
Radioactivity, Spleen (70 min after administration): 2.83 (0.36) % injected activity per gram
Radioactivity, Stomach (70 min after administration): 0.78 (0.15) % injected activity
Radioactivity, Bone (2 h after administration): 2.73 (0.47) % injected activity per gram
Radioactivity, Brain (2 h after administration): 0.24 (0.02) % injected activity per gram
Radioactivity, Kidney (2 h after administration): 8.39 (0.51) % injected activity per gram
Radioactivity, L. intestine (2 h after administration): 2.48 (1.12) % injected activity per gram
Radioactivity, Neck (2 h after administration): 0.08 (0.04) % injected activity
Radioactivity, Pancreas (2 h after administration): 1.68 (0.36) % injected activity per gram
Radioactivity, S. intestine (2 h after administration): 2.41 (0.71) % injected activity per gram
Radioactivity, Spleen (2 h after administration): 2.33 (0.14) % injected activity per gram
Radioactivity, Stomach (2 h after administration): 0.77 (0.08) % injected activity
Radioactivity, Bone (4 h after administration): 1.46 (0.16) % injected activity per gram
Radioactivity, Brain (4 h after administration): 0.18 (0.01) % injected activity per gram
Radioactivity, Heart (4 h after administration): 1.22 (0.12) % injected activity per gram
Radioactivity, Liver (4 h after administration): 1.32 (0.06) % injected activity per gram
Radioactivity, Neck (4 h after administration): 0.05 (0.04) % injected activity
Radioactivity, Pancreas (4 h after administration): 0.72 (0.15) % injected activity per gram
Radioactivity, S. intestine (4 h after administration): 3.09 (0.79) % injected activity per gram
Radioactivity, Stomach (4 h after administration): 0.65 (0.09) % injected activity
Radioactivity, Neck (12 h after administration): 0.06 (0.02)^ * % injected activity
Radioactivity, Stomach (12 h after administration): 0.39 (0.02)^ ** % injected activity
Radioactivity, Bone (24 h after administration): 0.48 (0.04) % injected activity per gram
Radioactivity, Brain (24 h after administration): 0.05 (0.01) % injected activity per gram
Radioactivity, Heart (24 h after administration): 0.92 (0.58) % injected activity per gram
Radioactivity, Kidney (24 h after administration): 1.67 (0.24) % injected activity per gram
Radioactivity, L. intestine (24 h after administration): 0.38 (0.22) % injected activity per gram
Radioactivity, Lung (24 h after administration): 1.58 (0.42) % injected activity per gram
Radioactivity, Muscle (24 h after administration): 0.26 (0.02) % injected activity per gram
Radioactivity, Neck (24 h after administration): 0.03 (0.00) % injected activity
Radioactivity, Pancreas (24 h after administration): 0.27 (0.05) % injected activity per gram
Radioactivity, S. intestine (24 h after administration): 0.26 (0.11) % injected activity per gram
Radioactivity, Stomach (24 h after administration): 0.20 (0.04)^ * % injected activity
Radioactivity excreted, Feces (until 24 h postinjection): 8.40 (3.14) % injected activity
Radioactivity excreted, Urine (until 24 h postinjection): 56.09 (4.93)^ ** % injected activity
Substance: Ga-DOTA-K([^125I]IPBA)-c(RGDfK) [[^125I]2]
Radioactivity, Blood (65 min after administration): 11.19 (0.16)^ ** % injected activity per gram
Radioactivity, Kidney (65 min after administration): 17.52 (1.13)^ * % injected activity per gram
Radioactivity, Liver (65 min after administration): 5.29 (0.52)^ * % injected activity per gram
Radioactivity, Lung (65 min after administration): 10.10 (0.52)^ ** % injected activity per gram
Radioactivity, S. intestine (65 min after administration): 4.93 (0.21)^ * % injected activity per gram
Radioactivity, Tumor (65 min after administration): 11.58 (0.32)^ * % injected activity per gram
Radioactivity, Blood (70 min after administration): 7.91 (0.45)^ *** % injected activity per gram
Radioactivity, Heart (70 min after administration): 3.25 (0.25)^ ** % injected activity per gram
Radioactivity, Kidney (70 min after administration): 11.87 (1.35)^ *** % injected activity per gram
Radioactivity, Liver (70 min after administration): 3.64 (0.49)^ * % injected activity per gram
Radioactivity, Lung (70 min after administration): 6.75 (0.74)^ ** % injected activity per gram
Radioactivity, Pancreas (70 min after administration): 1.82 (0.14)^ * % injected activity per gram
Radioactivity, S. intestine (70 min after administration): 3.77 (0.37)^ ** % injected activity per gram
Radioactivity, Tumor (70 min after administration): 11.24 (1.19)^ ** % injected activity per gram
Radioactivity, Blood (2 h after administration): 5.69 (0.44)^ *** % injected activity per gram
Radioactivity, Heart (2 h after administration): 2.24 (0.23)^ ** % injected activity per gram
Radioactivity, Liver (2 h after administration): 2.31 (0.17)^ * % injected activity per gram
Radioactivity, Lung (2 h after administration): 4.74 (0.12)^ * % injected activity per gram
Radioactivity, Muscle (2 h after administration): 1.73 (0.60)^ * % injected activity per gram
Radioactivity, Tumor (2 h after administration): 14.36 (1.54)^ ** % injected activity per gram
Radioactivity, Blood (4 h after administration): 1.71 (0.12)^ ** % injected activity per gram
Radioactivity, Kidney (4 h after administration): 5.00 (0.36)^ ** % injected activity per gram
Radioactivity, L. intestine (4 h after administration): 4.61 (1.33)^ ** % injected activity per gram
Radioactivity, Lung (4 h after administration): 2.31 (0.06)^ *** % injected activity per gram
Radioactivity, Muscle (4 h after administration): 0.52 (0.05)^ * % injected activity per gram
Radioactivity, Spleen (4 h after administration): 1.83 (0.10)^ * % injected activity per gram
Radioactivity, Tumor (4 h after administration): 12.42 (0.89) % injected activity per gram
Radioactivity, Blood (12 h after administration): 1.65 (0.20)^ *** % injected activity per gram
Radioactivity, Bone (12 h after administration): 0.72 (0.09)^ * % injected activity per gram
Radioactivity, Brain (12 h after administration): 0.07 (0.01)^ ** % injected activity per gram
Radioactivity, Heart (12 h after administration): 1.02 (0.07)^ ** % injected activity per gram
Radioactivity, Kidney (12 h after administration): 2.71 (0.17)^ *** % injected activity per gram
Radioactivity, L. intestine (12 h after administration): 0.75 (0.05)^ *** % injected activity per gram
Radioactivity, Liver (12 h after administration): 0.70 (0.08)^ *** % injected activity per gram
Radioactivity, Lung (12 h after administration): 2.07 (0.11)^ *** % injected activity per gram
Radioactivity, Muscle (12 h after administration): 0.37 (0.01)^ *** % injected activity per gram
Radioactivity, Pancreas (12 h after administration): 0.50 (0.02)^ ** % injected activity per gram
Radioactivity, S. intestine (12 h after administration): 0.68 (0.10)^ *** % injected activity per gram
Radioactivity, Spleen (12 h after administration): 1.03 (0.05)^ ** % injected activity per gram
Radioactivity, Tumor (12 h after administration): 7.08 (0.74)^ ** % injected activity per gram
Radioactivity, Blood (24 h after administration): 1.55 (0.17)^ * % injected activity per gram
Radioactivity, Liver (24 h after administration): 0.56 (0.10)^ * % injected activity per gram
Radioactivity, Spleen (24 h after administration): 0.72 (0.16)^ * % injected activity per gram
Radioactivity, Tumor (24 h after administration): 5.51 (0.05)^ * % injected activity per gram
